Where a name gives a salt, the structure may show the parent alone.
Key:
MPS1 = MPS1 (Homo sapiens (Human), UniProt P33981); test: Biochemical assay for inhibitors of MPS1 kinase activity (33P-ATP trans-phosphorylation, Dowex); settings: 5 nM MPS1, 15 microM ATP, P38-β-tide 200 microM
Excerpt: Cloning, Expression and Purification of Recombinant MPS1 Full Length Protein.
MPS1 full length (corresponding to residues 2-857 of the full length sequence, see Swiss-Prot accession number P33981) was PCR amplified from the full-length human MPS1 gene present in house as clone pGEX4t_MPS1.
Baculoviruses were generated by cotransfecting Sf9 insect cells with the expression vector and the viral DNA using the BaculoGold® transfection kit (Pharmingen). Viral supernatant was recovered after 5 days and subjected to 3 rounds of amplification to increase viral titer. Recombinant protein was produced by infecting High5 insect cells. After 72 hours of infection at 21° C., cells were recovered, pelletted and freezed at −80° C. For purification of recombinant protein, pellet was thawed, resuspended in lysis buffer (PBS, NaCl 150 mM, Glycerol 10%, CHAPS 0.1%, DTT 20 mM, protease and phosphatase inhibitors) and lysed by Gaulin. Lysate was cleared by centrifugation and loaded on a GST affinity column. After extensive wash, recombinant protein was cleaved by a specific protease and eluted by incubation.
To get a fully activated enzyme, the protein was then subjected to auto-phosphorylation in presence of ATP 1 mM at 25° C. for 2 hours in kinase buffer (Hepes pH7.5 50 mM, MgCl2 2.5 mM, MnCl2 1 mM, DTT 1 mM, phosphatase inhibitors); ATP was then removed whit a desalting column.
Biochemical Assay for Inhibitors of MPS1 Kinase Activity
(§1) The inhibitory activity of putative kinase inhibitors and the potency of selected compounds were determined using a trans-phosphorylation assay.
(§2) Specific peptide or protein substrates are trans-phosphorylated by their specific ser-thr or tyr kinase in the presence of ATP traced with ^33P-γ-ATP, and in the presence of their own optimal buffer and cofactors.
(§3) At the end of the phosphorylation reaction, more than 98% unlabeled ATP and radioactive ATP is captured by an excess of the ion exchange dowex resin; the resin then settles down to the bottom of the reaction plate by gravity.
Supernatant is subsequently withdrawn and transferred into a counting plate, then evaluated by P-counting.
The buffer for MPS1 assay was composed of HEPES 50 mM, at pH 7.5, with 2.5 mM MgCl2, 1 mM MnCl2, 1 mM DTT, 3 microM Na3VO4, 2 mM P-glycerophosphate and 0.2 mg/mL BSA.
The assay was run with a final concentration MPS1 of 5 nM, in the presence of 15 microM ATP and 1.5 nM ^33P-γ-ATP; the substrate was P38-β-tide, used at 200 microM.
(§4) The test mix consisted of:
(§5) 1) 3× Enzyme mix (done in Kinase Buffer 3×), 5 microL/well
(§6) 2) 3× substrate and ATP mix (done in ddH2O), together with ^33P-γ-ATP, 5 microL/well
(§7) 3) 3× test compounds (diluted into ddH2O—3% DMSO)—5 microL/well
a) for percent inhibition studies (HTS), individual dilution plates at 1 mM are diluted at a 3× concentration (30 microM) in ddH2O (3% DMSO=final concentration) using a Beckman NX automated pipetting platform. The same instrument is used for distributing the diluted mother plates into the test plates. b) for IC50 determination (KSS platform), 100 μl of each compound at 1 mM in 100% DMSO are transferred from the original plate into the first column of another 96 well plate (A1 to G1); well H1 is left empty for the internal standard inhibitor, usually staurosporine.
An automated station for serial dilutions (Biomek FX, Beckman) is used for producing 1:3 dilutions in 100% DMSO, from line A1 to A10, and for all the seven compounds in the column. Moreover, 4-5 copies of daughter plates are prepared by reformatting 5 microL of this first set of 100% DMSO dilution plates into 384 deep well-plates: one copy of the daughter plates with the serial dilutions of test compounds will be thaw the day of the experiments, reconstituted at a 3× concentration with water and used in the IC50 determination assays. In a standard experiment, the highest concentration (3×) of all compounds is 30 microM, while the lowest one is 1.5 nM. […]

PIM-1 = PIM-1 (Homo sapiens (Human), UniProt P11309); test: Biochemical assay for inhibitors of PIM-1 kinase activity (33P-ATP trans-phosphorylation, Dowex); settings: 1 nM enzyme, 200 microM ATP, Aktide 25 microM
Description: Biochemical Assay for Inhibitors of PIM-1 Kinase Activity
as §1, §2, §3
Supernatant is subsequently withdrawn and transferred into a counting plate, then evaluated by (3-counting.
The buffer for PIM-1 assay was composed of HEPES 50 mM, at pH 7.5, with 10 mM MgCl2, 1 mM DTT, 3 microM NaVO3, and 0.2 mg/mL BSA
Full-length human PIM-1 was expressed and purified as described in Bullock A N, et al., J. Biol. Chem. 2005, 280, 41675-82.
1.7 microM PIM1 was incubated 1 hour RT at 28° C. in the presence of 125 microM ATP
ATP concentration: 200 microM
Enzyme concentration: 1 nM
Substrate concentration Aktide (Chemical Abstract Service Registry Number 324029-01-8): 25 microM
as §4, §5, §6, §7
For IC50 determination, test compounds are received as a 1 mM solution in 100% DMSO and distributed into 96-well plates: compounds are then plated into the first column of a new 96-well plate (A1 to G1), 100 microL/well.
An automated station (Biomek FX, Beckman) is used for serial dilutions, producing 1:3 dilutions in 100% DMSO, from line A1 to A10, for all the compounds in the column. […]
Data are analyzed by an internally customized version of the “Assay Explorer” SW package, which provides sigmoidal fitting of the ten-dilution curves for IC50 determination in secondary assay/hit confirmation routines.

PIM-2 = PIM-2 (Homo sapiens (Human), UniProt Q9P1W9); test: PIM-2 kinase inhibition assay: Dowex technique; assay type: biochemical; settings: 1.5 nM enzyme, 4 microM ATP, Aktide 5 microM
Description: Method for PIM-2 Kinase Inhibition Assay: Dowex Technique
The buffer for PIM-2 assay was composed of HEPES 50 mM, at pH 7.5, with 1 mM MgCl2, 1 mM DTT, 3 microM Na3VO4, and 0.2 mg/mL BSA
Full-length human PIM-2 was expressed and purified as described in Fedorov O, et al., PNAS 2007 104, 51, 20523-28.
Enzyme concentration=1.5 nM
Aktide substrate (Chemical Abstract Service Registry Number 324029-01-8)=5 microM
See above: same procedure as described for PIM-1.

Chain of PIM-1 (P11309 whole entry): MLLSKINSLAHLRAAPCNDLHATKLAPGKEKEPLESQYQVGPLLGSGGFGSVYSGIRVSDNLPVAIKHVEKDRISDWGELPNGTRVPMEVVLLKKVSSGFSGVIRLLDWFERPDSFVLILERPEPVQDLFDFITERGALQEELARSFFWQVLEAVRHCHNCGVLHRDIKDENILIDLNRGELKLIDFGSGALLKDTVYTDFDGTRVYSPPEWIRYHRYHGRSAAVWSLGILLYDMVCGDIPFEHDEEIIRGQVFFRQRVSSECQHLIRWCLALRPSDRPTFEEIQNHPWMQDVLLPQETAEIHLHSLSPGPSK
Chain of MPS1 (P33981 2-857): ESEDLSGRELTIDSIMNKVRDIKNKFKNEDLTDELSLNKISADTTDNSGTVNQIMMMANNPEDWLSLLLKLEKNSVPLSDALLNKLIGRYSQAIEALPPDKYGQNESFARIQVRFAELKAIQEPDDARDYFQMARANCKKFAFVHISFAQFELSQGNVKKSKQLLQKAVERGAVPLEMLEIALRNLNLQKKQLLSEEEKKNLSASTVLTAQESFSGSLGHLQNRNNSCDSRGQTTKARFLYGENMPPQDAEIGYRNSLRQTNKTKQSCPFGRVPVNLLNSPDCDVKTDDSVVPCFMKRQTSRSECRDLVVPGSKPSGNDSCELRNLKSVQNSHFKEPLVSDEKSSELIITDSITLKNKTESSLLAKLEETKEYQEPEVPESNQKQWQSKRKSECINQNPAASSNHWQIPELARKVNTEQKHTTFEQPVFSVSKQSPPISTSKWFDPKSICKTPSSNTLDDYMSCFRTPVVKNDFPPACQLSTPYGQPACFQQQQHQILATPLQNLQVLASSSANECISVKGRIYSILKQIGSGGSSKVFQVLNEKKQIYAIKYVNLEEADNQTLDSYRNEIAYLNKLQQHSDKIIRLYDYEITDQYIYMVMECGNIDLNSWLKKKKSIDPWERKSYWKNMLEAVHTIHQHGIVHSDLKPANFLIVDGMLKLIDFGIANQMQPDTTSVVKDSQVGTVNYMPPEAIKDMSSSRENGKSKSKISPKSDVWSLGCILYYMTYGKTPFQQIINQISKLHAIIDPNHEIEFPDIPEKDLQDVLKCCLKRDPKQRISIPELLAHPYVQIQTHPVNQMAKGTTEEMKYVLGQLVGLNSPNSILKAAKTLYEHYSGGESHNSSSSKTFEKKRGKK
Chain of PIM-2 (Q9P1W9 whole entry): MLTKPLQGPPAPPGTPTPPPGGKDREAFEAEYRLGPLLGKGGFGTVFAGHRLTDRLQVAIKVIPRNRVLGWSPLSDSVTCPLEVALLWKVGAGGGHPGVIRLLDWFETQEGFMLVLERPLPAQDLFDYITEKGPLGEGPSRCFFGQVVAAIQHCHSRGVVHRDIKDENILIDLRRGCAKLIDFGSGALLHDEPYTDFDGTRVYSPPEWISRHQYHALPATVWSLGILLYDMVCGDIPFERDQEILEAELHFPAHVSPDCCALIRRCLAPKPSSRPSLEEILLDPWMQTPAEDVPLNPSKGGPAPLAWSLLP

Row | Compound | IC50 (MPS1) | IC50 (PIM-1) | IC50 (PIM-2)
1 | COc1cc(N2CCN(C)CC2)ccc1Nc1ncc2c(n1)-c1c(c(C(N)=O)nn1C)CCC2 [Compound 3, 9-{[2-methoxy-4-(4-methylpiperazin-1-yl)phenyl]amino}-1-methyl-1,4,5,6-tetrahydropyrazolo[4′,3′:6,7]cyclohepta[1,2-d]pyrimidine-3-carboxamide] | 194 nM | 1320 nM | 5910 nM
2 | COc1cc(C(=O)NC2CCN(C)CC2)ccc1Nc1ncc2c(n1)-c1c(c(C(=O)N[C@H](CN)c3ccccc3)nn1C)CCC2 [Compound 5, N-[(1S)-2-amino-1-phenylethyl]-9-({2-methoxy-4-[(1-methylpiperidin-4-yl)carbamoyl]phenyl}amino)-1-methyl-1,4,5,6-tetrahydropyrazolo[4′,3′:6,7]cyclohepta[1,2-d]pyrimidine-3-carboxamide dihydrochloride] | 469 nM | 497 nM | 3760 nM
3 | CN1CCN(c2ccc(Nc3ncc4c(n3)-c3c(c(C(N)=O)nn3C)CCC4)cc2)CC1 [Compound 67, 1-methyl-9-{[4-(4-methylpiperazin-1-yl)phenyl]amino}-1,4,5,6-tetrahydropyrazolo[4′,3′:6,7]cyclohepta[1,2-d]pyrimidine-3-carboxamide trifluoroacetate] | 1200 nM | 2450 nM | 3600 nM

Source: US8916577B2, “Tricyclic derivatives, process for their preparation and their use as kinase inhibitors” (Nerviano Medical Sciences S.R.L., priority 2011, dated 2014)
